# Experimental data from PubChem BioAssay AID1919013 (Molecular Pharmacology Branch, DTP, NCI, 2023).
# Test system: LG0703-F498-PDC complex spheroid growth
# Experiment: Anticancer human tumor LG0703-F498-PDC patient-derived lung adenocarcinoma cell line growth inhibition [AhR]
# Settings: for IC50: curve of first compound; for viability, T/C: stronger effect = lower value
# Source text: Multicellular complex tumor spheroid response to aryl hydrocarbon receptor antagonists in combination with a variety of drugs and investigational agents in selected tumor cell lines
# The current study was undertaken to assess response to aryl hydrocarbon receptor antagonists in combination with standard-of-care drugs and investigational agents in solid tumor complex spheroid models. Complex spheroids include a stromal component modeled by human endothelial cells (HUVEC) and fibroblasts modeled by human mesenchymal stem cells (MSCs). The concentration ranges selected for each drug and investigational agent were based upon clinically achievable concentrations if the clinical Cmax of the agent was known.
# Compounds. The drugs and investigational agents: BAY 2416964 (NSC825713), GNF351 (NSC835774), CH-223191 (NSC835775), CPI-455 (NSC825282), aza-TdCyd (NSC777586), decitabine (NSC127716), belinostat (NSC758774), entinostat (NSC756642), pevonedistat (NSC761192), tazemetostat (NSC777109), talazoparib (NSC765396), olaparib (NSC753686), selinexor (NSC780203), nedisertib (M3814, NSC802822), bortezomib (NSC756655), venetoclax (NSC766270), doxorubicin (NSC123127), elimusertib (BAY189344, NSC800525), ceralasertib (AZD6738, NSC777638), TAK-243 (NSC785004), alisertib (NSC759677), etoposide (NSC141540), topotecan (NSC609699), eribulin (NSC707389), gemcitabine (NSC613327), carboplatin (NSC241240), cisplatin (NSC119875), and SN-38 (NSC673596) were obtained from the National Cancer Institute (NCI) Developmental Therapeutics Program Chemical Repository (32). The FDA-approved anticancer drug set is available from the Developmental Therapeutics Program at https://dtp.cancer.gov/organization/dscb/obtaining/available plates.htm. […] The stock solutions were prepared in dimethyl sulfoxide (DMSO, Sigma-Aldrich, St. Louis, MO, cat. D2650), except for the platinum compounds which were prepared in saline (Quality Biological, Gaithersburg, MD, cat. 114-055-101), at 800-fold the tested concentration and stored at -70 degrees C prior to their use. All drugs and investigational agents were tested over a range starting from a high concentration at or near the clinical Cmax and decreasing in half-log increments. If the clinical Cmax for an agent had not been determined, the highest concentration tested was 10 microM (Table 1).
# Cell Culture. All cells were maintained in an incubator at 37 degrees C and 5% CO2 with 95% humidity. The PDC lines were cultured according to standard operating procedures established by the NCI PDMR (https://pdmr.cancer.gov). Briefly, all PDCs were thawed and cultured in Matrigel-coated flasks prepared with a working solution of 1X Ham's F-12 nutrient mix, without supplementation (Invitrogen, Waltham, MA, cat. 11765054), 100 U/mL penicillin-streptomycin (Invitrogen, cat. 15140122), and 2.5% Matrigel (Corning Inc., Corning, NY, cat. 354248) for the first three passages. All PDCs were cultured in complete DMEM/F-12 media containing advanced DMEM/F-12 (Invitrogen, cat. 12634028), 4.9% defined fetal bovine serum, heat inactivated (HyClone Laboratories Inc., Logan, UT, cat. SH30070.03HI), 389 ng/mL hydrocortisone (Sigma-Aldrich, cat. H4001), 9.7 ng/mL human EGF recombinant protein (Invitrogen, cat. PHG0313), 23.4 microg/mL adenine (Sigma-Aldrich, cat. A2786), 97.3 U/mL penicillin-streptomycin (Invitrogen, cat. 15140122), 1.9 mM L-glutamine (Invitrogen, cat. 25030081), and 9.7 microM Y-27632 dihydrochloride (Tocris Bioscience, Bristol, United Kingdom, cat. 1254). The PDCs were cultured in complete DMEM/F12 media without 10 microM Y-27632 dihydrochloride for at least two passages prior to the screen. The established cell lines NCI-H1341 and […] were cultured in DMEM/F-12, HEPES (Invitrogen, cat. 11330032), 5% defined fetal bovine serum (HyClone Laboratories Inc., cat. SH30070.03), ITS premix universal culture supplement [insulin (5 microg/mL), transferrin (5 microg/mL), and selenious acid (5 ng/mL)] […]
# 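Also: luminescence taken as a proxy for viable cell amount.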
# 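For viability, T/C in this document: percent of DMSO vehicle control where 100% means growth equal to vehicle.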
smiles,measurement,setting,value
CCc1c2c(nc3ccc(O)cc13)-c1cc3c(c(=O)n1C2)COC(=O)[C@]3(O)CC + CC(CO)NC(=O)c1cc(-c2ccc(Cl)cc2)nn(-c2cnn(C)c2)c1=O,IC50,second compound 0.1 µM,47.4 nM
same,IC50,second compound 0.316 µM,24.4 nM
same,IC50,second compound 1 µM,28.3 nM
same,IC50,second compound 3.16 µM,19.8 nM
same,IC50,second compound 10 µM,15.7 nM
same,"viability, T/C","second compound 0.1 µM, first compound 0.000949 µM",96.2%
same,"viability, T/C","second compound 0.1 µM, first compound 0.003 µM",84.6%
same,"viability, T/C","second compound 0.1 µM, first compound 0.00949 µM",69.7%
same,"viability, T/C","second compound 0.1 µM, first compound 0.03 µM",54%
same,"viability, T/C","second compound 0.1 µM, first compound 0.0949 µM",44%
same,"viability, T/C","second compound 0.1 µM, first compound 0.3 µM",26.3%
same,"viability, T/C","second compound 0.316 µM, first compound 0.000949 µM",82.8%
same,"viability, T/C","second compound 0.316 µM, first compound 0.003 µM",94.1%
same,"viability, T/C","second compound 0.316 µM, first compound 0.00949 µM",62.5%
same,"viability, T/C","second compound 0.316 µM, first compound 0.03 µM",46.9%
same,"viability, T/C","second compound 0.316 µM, first compound 0.0949 µM",36.9%
same,"viability, T/C","second compound 0.316 µM, first compound 0.3 µM",24.3%
same,"viability, T/C","second compound 1 µM, first compound 0.000949 µM",79%
same,"viability, T/C","second compound 1 µM, first compound 0.003 µM",75.6%
same,"viability, T/C","second compound 1 µM, first compound 0.00949 µM",67.8%
same,"viability, T/C","second compound 1 µM, first compound 0.03 µM",48.9%
same,"viability, T/C","second compound 1 µM, first compound 0.0949 µM",32.6%
same,"viability, T/C","second compound 1 µM, first compound 0.3 µM",26%
same,"viability, T/C","second compound 3.16 µM, first compound 0.000949 µM",72.7%
same,"viability, T/C","second compound 3.16 µM, first compound 0.003 µM",73.2%
same,"viability, T/C","second compound 3.16 µM, first compound 0.00949 µM",58.5%
same,"viability, T/C","second compound 3.16 µM, first compound 0.03 µM",45.6%
same,"viability, T/C","second compound 3.16 µM, first compound 0.0949 µM",27.8%
same,"viability, T/C","second compound 3.16 µM, first compound 0.3 µM",22.5%
same,"viability, T/C","second compound 10 µM, first compound 0.000949 µM",72%
same,"viability, T/C","second compound 10 µM, first compound 0.003 µM",74%
same,"viability, T/C","second compound 10 µM, first compound 0.00949 µM",56.5%
same,"viability, T/C","second compound 10 µM, first compound 0.03 µM",40.5%
same,"viability, T/C","second compound 10 µM, first compound 0.0949 µM",26.4%
same,"viability, T/C","second compound 10 µM, first compound 0.3 µM",24.5%
O=C(c1cc(Cc2n[nH]c(=O)c3ccccc23)ccc1F)N1CCN(C(=O)C2CC2)CC1 + CC(CO)NC(=O)c1cc(-c2ccc(Cl)cc2)nn(-c2cnn(C)c2)c1=O,IC50,second compound 0.1 µM,> 10000 nM
same,IC50,second compound 0.316 µM,> 10000 nM
same,IC50,second compound 1 µM,> 10000 nM
same,IC50,second compound 3.16 µM,> 10000 nM
same,IC50,second compound 10 µM,> 10000 nM
same,"viability, T/C","second compound 0.1 µM, first compound 0.0316 µM",95.2%
same,"viability, T/C","second compound 0.1 µM, first compound 0.1 µM",99.8%
same,"viability, T/C","second compound 0.1 µM, first compound 0.316 µM",94.8%
same,"viability, T/C","second compound 0.1 µM, first compound 1 µM",86.6%
same,"viability, T/C","second compound 0.1 µM, first compound 3.16 µM",95.3%
same,"viability, T/C","second compound 0.1 µM, first compound 10 µM",70.4%
same,"viability, T/C","second compound 0.316 µM, first compound 0.0316 µM",96.2%
same,"viability, T/C","second compound 0.316 µM, first compound 0.1 µM",98.4%
same,"viability, T/C","second compound 0.316 µM, first compound 0.316 µM",87.5%
same,"viability, T/C","second compound 0.316 µM, first compound 1 µM",82.4%
same,"viability, T/C","second compound 0.316 µM, first compound 3.16 µM",88.8%
same,"viability, T/C","second compound 0.316 µM, first compound 10 µM",83.1%
same,"viability, T/C","second compound 1 µM, first compound 0.0316 µM",93%
same,"viability, T/C","second compound 1 µM, first compound 0.1 µM",108%
same,"viability, T/C","second compound 1 µM, first compound 0.316 µM",95.7%
same,"viability, T/C","second compound 1 µM, first compound 1 µM",74.4%
same,"viability, T/C","second compound 1 µM, first compound 3.16 µM",86.1%
same,"viability, T/C","second compound 1 µM, first compound 10 µM",81%
same,"viability, T/C","second compound 3.16 µM, first compound 0.0316 µM",89.3%
same,"viability, T/C","second compound 3.16 µM, first compound 0.1 µM",91%
same,"viability, T/C","second compound 3.16 µM, first compound 0.316 µM",94.5%
same,"viability, T/C","second compound 3.16 µM, first compound 1 µM",74.1%
same,"viability, T/C","second compound 3.16 µM, first compound 3.16 µM",79%
same,"viability, T/C","second compound 3.16 µM, first compound 10 µM",72%
same,"viability, T/C","second compound 10 µM, first compound 0.0316 µM",77.4%
same,"viability, T/C","second compound 10 µM, first compound 0.1 µM",78.6%
same,"viability, T/C","second compound 10 µM, first compound 0.316 µM",82.7%
same,"viability, T/C","second compound 10 µM, first compound 1 µM",80%
same,"viability, T/C","second compound 10 µM, first compound 3.16 µM",81.8%
same,"viability, T/C","second compound 10 µM, first compound 10 µM",79.8%
